Converted amounts (≈) assume the structure as drawn.

Holding throughout (type): cell-based
Experiment [1] relates to Aspergillus fumigatus 11628. Put plainly: In vitro MIC susceptibility testing, broth microdilution (CLSI M38-A2). To be noted: Aspergillus fumigatus 11628, Triazole resistance phenotype; 50% reduction in growth turbidity at 600 nm; median of replicate assays; read-out: Cyphomycin MIC. How it is done: (§1) In vitro MIC susceptibility testing. MICs of Cyphomycin for the Candida isolates were determined using a broth microdilution method in accordance with the guidelines presented in Clinical and Laboratory Standards Institute (CLSI) document M27-A3 for Candida and M38-A2 for Aspergillus^36,38. MIC values of cyphomycin were defined as the lowest concentration at which a prominent decrease in growth turbidity (i.e., 50% reduction in growth determined spectrophotometrically) relative to the turbidity of the compound-free control at 600 nm was observed. Median MIC from replicate assays is reported. Results are shown in Table 1 for cyphomycin activity against drug-resistant fungi.

A further experiment has as its system Candida auris B11211. As to the kind of experiment: In vitro MIC susceptibility testing, broth microdilution (CLSI M27-A3). Conditions: Candidozyma auris; Candida auris B11211, Amphotericin B resistance phenotype; 50% reduction in growth turbidity at 600 nm; median of replicate assays; read-out: Cyphomycin MIC. The method, then:
as §1
Background: In broth dilution the organism is exposed to a series of concentrations in liquid medium.

A further experiment relates to Candida glabrata 4720. Described as above. Conditions: Nakaseomyces glabratus; Candida glabrata 4720, Echinocandin resistance phenotype; 50% reduction in growth turbidity at 600 nm; median of replicate assays; read-out: Cyphomycin MIC. How it is done: as §1

Take `CCC(OC1CC(C)(O)C(OC2CCC(OC(=O)C(C)C(O)c3ccc4c(c3)C(=O)C=C(C)C4=O)C(C)O2)C(C)O1)C(C)C(O)C(C)C(O)C(C)C1OC(=O)/C=C/C(C)C(O)CC(O)CCCC(O)CCC(C)C(O)C(=O)C2(O)CC(O)CC(CC(O)CC(O)CC(O)CCCC(O)/C=C/C1C)O2` (stereo not drawn) [Cyphomycin, cyphomycin]: the MIC (in general, the smallest concentration in the dilution series that meets the test's criterion for growth inhibition) in experiment [1] amounted to 0.5 µg/mL (≈ 0.342 µM); with Candida auris B11211, 4 µg/mL (≈ 2.73 µM); in the experiment on Candida glabrata 4720 it was 0.5 µg/mL (≈ 0.342 µM).

Source of the values: patent US11028113B2, “Cyphomycin, compositions and uses thereof” (Wisconsin Alumni Research Foundation, priority 2018, dated 2021).
